Measured values: patent publication US20240254547A1, “HIGHLY ACCURATE […]” (KAO CORPORATION, priority 2018, published 2024)

How the values were obtained:
[1] = system: TA100 strain of Salmonella typhimurium (S. typhimurium) LT-2; experiment: Ames test (pre-incubation method), number of revertant colonies; type: cell-based; conditions: for Number of revertant colonies in Ames test, Mean: mean of three plates
Procedure: Exposure of cells to ENU was performed in accordance with the pre-incubation method of the Ames test (K. Mortelmans et al. Mutat. Res.—Fundam. Mol. Mech. Mutagen. 455:29-60, 2000). TA100 strain was seeded in 2 mL of Nutrient Broth No. 2 (produced by Oxoid Limited), and subjected to shaking culture at 37° C. and 180 rpm for 4 hours to afford pre-culture solution with an O.D.660 value of 1.0 or higher. ENU (produced by Sigma-Aldrich Co. LLC.) was diluted with dimethylsulfoxide (DMSO; produced by Wako Pure Chemical Industries, Ltd.). Into test tubes, 100 μL of the ENU solution, 500 μL of 0.1 M phosphate buffer, and 100 μL of the pre-culture solution were added (amount of ENU: 62.5, 125, 250, 500, and 1,000 μg/tube), and the resultants were subjected to shaking culture at 100 rpm in a water bath at 37° C. for 20 minutes (ENU group). For a control group, 100 μL of solvent (DMSO) was added instead of the ENU solution. After shaking culture for 20 minutes, the test tubes each containing a culture solution were taken out of the water bath, and 50 μL of each culture solution was added to 2 mL of Nutrient Broth solution aliquoted in advance, and the resultant was further cultured in an incubator at 37° C. and 180 rpm for 14 hours, from which the bacterial suspensions were then collected and centrifuged at 7,500 rpm for 5 minutes, and the supernatants were removed to collect the bacterial cells.
For the Ames test, a bacterial suspension exposed to ENU by using the pre-incubation method was produced under the above-described conditions, and 2 mL of top agar (containing 1% NaCl, 1% agar, 0.05 mM histidine, and 0.05 mM biotine) warmed to 45° C. was added thereto and the resultant was suspended by using a Vortex, and poured onto a minimal glucose agar medium (Tesmedia® AN; produced by Oriental Yeast Co., Ltd.) to form a layer. The resulting plate was subjected to culturing at 37° C. for 48 hours, and the number of colonies observed was counted.

[2] = system: gpt gene; experiment: gpt-assay, gene mutation frequency (OECD TG488); type: in vivo, mouse (C57BL/6JJmsSlc-Tg (gpt delta)); conditions: bone marrow
Procedure: Male TG mice which were 7 to 9 weeks old at initiation of administration were used. ENU (produced by Toronto Research Chemicals, Inc.) was dissolved in saline to a concentration of 15.0 mg/mL. By using a plastic syringe and a 25 G injection needle, […] was intraperitoneally administered to the mice once per day (ENU 150 mg/kg/day) for 5 days (ENU group). Saline was administered to a control group. Seven days after the final administration, the animals were each euthanized to resect the femur, and genomic DNA was extracted from the bone marrow by using a REcoverEase DNA Isolation Kit (produced by Agilent Technologies) in accordance with the recommended protocol. The double-stranded DNA concentration of the resulting DNA was measured by using a Qubit3.0 Fluorometer (produced by Thermo Fisher Scientific) with a Qubit™ dsDNA BR Assay Kit attached thereto.
DNA was extracted from the bone marrow of each of the mice obtained in 1) by using phenol/chloroform. For the extract DNA, gene mutation frequency was calculated by using the gpt gene introduced into each TG mouse in accordance with OECD Guidelines for the Testing of Chemicals 488 (OECD TG488) (gpt-assay). […] From the number of colonies formed on the selective medium (mutant colonies) and the number of colonies formed on the medium for titer determination (total colonies), mutation frequency (*10^−6) was calculated. […]

SMILES: CCN(N=O)C(N)=O [ENU, ethylnitrosourea]
- Number of revertant colonies after exposure to ENU versus DMSO control ([1]; 62.5 to 1,000 μg/plate): increase
- Number of revertant colonies in Ames test, Mean ([1]; ENU 62.5 μg/plate): 207.3
- Number of revertant colonies in Ames test ([1]; ENU 62.5 μg/plate, plate 1): 220
- Number of revertant colonies in Ames test ([1]; ENU 62.5 μg/plate, plate 2): 192
- Number of revertant colonies in Ames test ([1]; ENU 62.5 μg/plate, plate 3): 210
- Number of revertant colonies in Ames test, Mean ([1]; ENU 125 μg/plate): 381.3
- Number of revertant colonies in Ames test ([1]; ENU 125 μg/plate, plate 1): 430
- Number of revertant colonies in Ames test ([1]; ENU 125 μg/plate, plate 2): 391
- Number of revertant colonies in Ames test ([1]; ENU 125 μg/plate, plate 3): 323
- Number of revertant colonies in Ames test, Mean ([1]; ENU 250 μg/plate): 1389.0
- Number of revertant colonies in Ames test ([1]; ENU 250 μg/plate, plate 1): 1482
- Number of revertant colonies in Ames test ([1]; ENU 250 μg/plate, plate 2): 1359
- Number of revertant colonies in Ames test ([1]; ENU 250 μg/plate, plate 3): 1326
- Number of revertant colonies in Ames test, Mean ([1]; ENU 500 μg/plate): 3960.7
- Number of revertant colonies in Ames test ([1]; ENU 500 μg/plate, plate 1): 4095
- Number of revertant colonies in Ames test ([1]; ENU 500 μg/plate, plate 2): 4006
- Number of revertant colonies in Ames test ([1]; ENU 500 μg/plate, plate 3): 3751
- Number of revertant colonies in Ames test, Mean ([1]; ENU 1000 μg/plate): 2534.0
- Number of revertant colonies in Ames test ([1]; ENU 1000 μg/plate, plate 1): 1659
- Number of revertant colonies in Ames test ([1]; ENU 1000 μg/plate, plate 2): 3206
- Number of revertant colonies in Ames test ([1]; ENU 1000 μg/plate, plate 3): 2737
- Mean Mutant Frequency (gpt-assay) ([2]; ENU 150 mg/kg/day intraperitoneally for 5 days, n=4): 126.33 *10^−6
- Gene mutation frequency (gpt-assay) versus control group ([2]; ENU 150 mg/kg/day): Significant increase
